Where two headings read alike, the source gives them in different places. Marks after values point to notes of the source that are not given here.
Tests used:
[1] = male, crossbred, cattle, in vivo
Text: A subset of ten cattle (5 from each treatment) were used for baseline and withdrawal sampling of rumen fluid and blood plasma for residual methanol quantification. […] Withdrawal samples were collected from the same subset of animals.

[2] = Crude glycerin as an energy source in swine nursery diets; type: in vivo; settings: nursery pigs
Procedure: In yet another embodiment, crude glycerin was evaluated as an energy source in swine nursery diets. A total of 165 pigs (Monsanto Choice Genetics, EB x GP37; initial weight: 7.14 kg) were used to determine the effect of […] on performance of nursery pigs. Pigs were blocked by initial weight to one of five dietary treatments with seven pens per treatment and four or five pigs per pen. […] The basal diets were close to a typical corn-SBM diet with no animal fat added. […] Dietary protein, lysine (amino acid ratios), major minerals, and vitamins were equal across treatments within each phase. […] Dietary lysine levels were high enough to […] to observe energy effect. Feeding programs of Momentum grind-mix option (15-25, 25-35 and 35-50 lbs. BW) was the base program. The trial had four phases with 7, 7, 7, and 9 days, respectively. Before the pigs started the trial, the pigs were fed a common diet until the pigs weighed about 15.5 pounds. Medication choice for diets in this embodiment was Carbadox. The assumed ME value for crude glycerin was based on preliminary research data from Europe. […] Feed efficiency data was regressed against daily ME intake to estimate ME content for crude glycerin. […] The crude glycerin's energy value should be similar to or lower than corn.

[3] = Crude glycerin in finishing cattle diets: carcass merit; type: in vivo, Angus-cross steers; settings: for Adjusted Carcass Live Wt / Backfat Depth / Choice 0 / Choice - / Dress / Hot Carcass Weight / KPH Fat / Live Weight / Marbling Score / Ribeye Area / YG 2 / YG 3 / YG 4 / Yield Grade / Carcass Value: 10% DM glycerin; for Carcass Value: calculated from carcass weight, premiums and discounts
Procedure: All cattle were adapted on a common 4-step transition prior to initiation of the evaluation. Cattle were blocked by weight (4 blocks) with four pens per treatment (9-10 head/pen). […] Individual weights were collected at 28-day intervals throughout with steers terminated on three harvest dates (days on feed 116 to 153 days) based on weight and condition. Six monthly periods and cumulative (d 1-116 and 1-153) periods were analyzed. […] Carcass value was calculated using actual carcass weight and associated premiums and discounts for quality and yield grades.

[4] = Lactating Holstein cows fed heat stress product with and without glycerin; type: in vivo; settings: heat stress product + 454 g/d glycerin
Text: Forty-eight lactating Holstein cows (twelve per treatment) were used in a randomized complete block design to determine the effect of feed additives on production efficiency. […] Treatments 2 and 4 will be the focus of this example. Diets were corn silage based and formulated to be iso-nitrogenous. Cows were housed in a free-stall barn with access to individual stalls. Training for Calan door use was initiated in mid-May, the standardization period occurred in early June and the treatment period started in late June and continued through early August. Feed was mixed and delivered once daily and fed behind electronic Calan doors, allowing individual intake to be determined. Ad libitum intakes were adjusted to achieve orts of 7-10% daily. Cows were milked twice daily at 0400 and 1500. Feed intake, milk yield and composition, body temperature, and body weight changes were monitored.

[5] = Glycerin as feed ingredient for lactating dairy cattle; type: in vivo, lactating Holstein cows; settings: for Estimated Net Energy for Lactation (of the entire diet): calculated from energy output in milk and body weight increase
Procedure: In another embodiment, an evaluation was conducted to assess practical energy value of using glycerin as a feed ingredient for lactating dairy cattle. […] Diets were balanced to meet energy requirements based on the control diet, be isonitrogenous, and balanced to meet or exceed requirements for all other nutrients. The basal ration contained corn silage, alfalfa haylage, hay, high-moisture corn, vitamins, and minerals, and was formulated to contain about 17% CP, 6.5% RUP, and 10.5 RDP (DM basis).

[6] = Gross energy of crude glycerin sample; type: physicochemical; settings: test crude glycerin sample with 14.8% moisture
[7] = DDGS:Soy Hulls 10:0 diet (Treatment 2)
[8] = DDGS:Soy Hulls 30:15 diet (Treatment 4)

OCC(O)CO [crude glycerin, glycerin]
animals with measurable methanol in rumen fluid [1]: 50%
animals with measurable methanol in rumen fluid ([1]; 16 day): 100%
methanol in rumen fluid ([1]; 16 day): ≤ 23.77 ppm
daily gain ([2]; phase 4, increasing dietary crude glycerin): decreased in phase 4 in a linear and quadratic manner
Feed intake ([2]; phases 2, 3, 4 and cumulative phases 1-2, 1-3, 1-4, increasing dietary crude glycerin): linearly increased
daily gain ([2]; up to 12% crude glycerin): did not affect daily gain
Adjusted Carcass Live Wt [3, 7]: 567.9^a kg
Backfat Depth [3, 7]: 1.40 cm
Choice 0 [3, 7]: 66.7%
Choice - [3, 7]: 94.4%
Dress [3, 7]: 61.59%
Hot Carcass Weight [3, 7]: 357.7^a kg
KPH Fat [3, 7]: 1.90%
Live Weight [3, 7]: 581.0^a kg
Marbling Score [3, 7]: 623.1
Ribeye Area [3, 7]: 85.49 sq cm
YG 2 [3, 7]: 44.4%
YG 3 [3, 7]: 55.6%
YG 4 [3, 7]: 0.0%
Yield Grade [3, 7]: 3.01
Carcass Value [3, 7]: 1038.6^a
Adjusted Carcass Live Wt [3, 8]: 551.4^ab kg
Backfat Depth [3, 8]: 1.48 cm
Choice 0 [3, 8]: 65.0%
Choice - [3, 8]: 95.0%
Dress [3, 8]: 61.65%
Hot Carcass Weight [3, 8]: 347.4^ab kg
KPH Fat [3, 8]: 1.87%
Live Weight [3, 8]: 563.3^ab kg
Marbling Score [3, 8]: 630.1
Ribeye Area [3, 8]: 84.86 sq cm
YG 2 [3, 8]: 45.0%
YG 3 [3, 8]: 55.0%
YG 4 [3, 8]: 0.0%
Yield Grade [3, 8]: 3.07
Carcass Value [3, 8]: 1008.5^ab
Adjusted Carcass Live Wt ([3]; main effect over both diets): 559.6 kg
Backfat Depth ([3]; main effect over both diets): 1.44 cm
Choice 0 ([3]; main effect over both diets): 65.8%
Choice - ([3]; main effect over both diets): 94.7%
Dress ([3]; main effect over both diets): 61.62%
Hot Carcass Weight ([3]; main effect over both diets): 352.6 kg
KPH Fat ([3]; main effect over both diets): 1.88%
Live Weight ([3]; main effect over both diets): 572.2 kg
Marbling Score ([3]; main effect over both diets): 626.6
Ribeye Area ([3]; main effect over both diets): 85.18 sq cm
YG 2 ([3]; main effect over both diets): 44.7%
YG 3 ([3]; main effect over both diets): 55.3%
YG 4 ([3]; main effect over both diets): 0.0%
Yield Grade ([3]; main effect over both diets): 3.04
Carcass Value ([3]; main effect over both diets): 1023.5
final and hot carcass weight, ribeye area, carcass value versus control ([3]; steers fed 10% crude glycerin): tended (P<0.10) to have greater final and hot carcass weight, ribeye area, and resulting carcass value
NE Balance [4]: 6.15 mcal/day
NE intake [4]: 38.74 mcal/day
NE milk [4]: 27.07 mcal/day
Body Weight change ([4]; 56 days): greater
Milk fat ([4]; 56 days): 3.90%
Milk fat, milk protein, and energy corrected milk yield ([4]; 56 days): tended greater
Milk production ([4]; 56 days): not affected by treatment group
Milk protein ([4]; 56 days): 2.93%
Retained net energy for lactation and/or body weight gain ([4]; 56 days): significantly greater
Milk ([4]; 56 days, all cows): 38.53 kg/day
DMI ([4]; 56 days, listed as Glycerin): 23.49 kg/day
DMI ([4]; 56 days, listed as glycerin): not different among treatment groups
Milk, Multiparous ([4]; multiparous cows): 36.63 kg/day
Milk, Primiparous ([4]; primiparous cows): 40.42 kg/day
ECM (energy corrected milk) ([4]; (.3246 × kg milk) + (12.86 × kg fat) + (7.04 × kg protein)): 39.40 kg/day
BW change ([4]; difference in body weights using a weekly rolling average): 0.779 kg/day
Body Weight change ([5]; 5% glycerin fed (DM basis)): 89.6^ab lbs.
Body condition score change ([5]; 5% glycerin fed (DM basis)): 0.1
Feed intake ([5]; 5% glycerin fed (DM basis)): 53.9 lb/day
Milk production ([5]; 5% glycerin fed (DM basis)): 81.2 lb/day
Milk urea Nitrogen ([5]; 5% glycerin fed (DM basis)): 10.9^b mg/dl
Somatic Cell Count ([5]; 5% glycerin fed (DM basis)): 490 1000 cells/ml
Estimated Net Energy for Lactation (of the entire diet) ([5]; 5% glycerin fed (DM basis)): 1.55 mcal/kg
Body Weight change ([5]; 10% glycerin fed (DM basis)): 109.3^b lbs.
Body condition score change ([5]; 10% glycerin fed (DM basis)): 0.1
Feed intake ([5]; 10% glycerin fed (DM basis)): 54.1 lb/day
Milk production ([5]; 10% glycerin fed (DM basis)): 82.1 lb/day
Milk urea Nitrogen ([5]; 10% glycerin fed (DM basis)): 10.7^b mg/dl
Somatic Cell Count ([5]; 10% glycerin fed (DM basis)): 137 1000 cells/ml
Estimated Net Energy for Lactation (of the entire diet) ([5]; 10% glycerin fed (DM basis)): 1.57 mcal/kg
Body Weight change ([5]; 15% glycerin fed (DM basis)): 113.5^b lbs.
Body condition score change ([5]; 15% glycerin fed (DM basis)): 0.1
Feed intake ([5]; 15% glycerin fed (DM basis)): 53.0 lb/day
Milk production ([5]; 15% glycerin fed (DM basis)): 80.0 lb/day
Milk urea Nitrogen ([5]; 15% glycerin fed (DM basis)): 10.2^b mg/dl
Somatic Cell Count ([5]; 15% glycerin fed (DM basis)): 144 1000 cells/ml
Estimated Net Energy for Lactation (of the entire diet) ([5]; 15% glycerin fed (DM basis)): 1.58 mcal/kg
Gross energy [6]: 3845 kcal/kg

— US20080260896A1 (priority 2007, published 2008)
